Measurements as given in ChEMBL document CHEMBL1159366, “Antimycobacterial activity of phorbol esters from the fruits of Sapium indicum” (2003).
Values after ≈ are worked out from the molar mass of the structure shown.

Test system: Mycobacterium tuberculosis
Assay: Antimycobacterial activity against Mycobacterium tuberculosis H37Ra
Type: functional

With CNc1ccccc1C(=O)O[C@@H]1[C@@H](C)[C@]2(O)[C@@H]3C=C(C)C(=O)[C@@H]3CC(CO)=C[C@H]2[C@@H]2C(C)(C)[C@]12OC(C)=O the MIC was greater than 200 µg/mL.
With CNc1ccccc1C(=O)O[C@@H]1[C@@H](C)[C@]2(O)[C@@H]3C=C(C)C(=O)[C@H]3[C@H](O)C(C)=C[C@H]2[C@@H]2C(C)(C)[C@]12OC(C)=O [SAPINTOXIN C] the MIC was 25 µg/mL (≈ 47.7 µM).
Work on CNc1ccccc1C(=O)O[C@@H]1[C@@H](C)[C@]2(O)[C@@H]3C=C(C)C(=O)[C@H]3CC(C)=C[C@H]2[C@@H]2C(C)(C)[C@]12OC(C)=O yielded an MIC of 50 µg/mL (≈ 98.5 µM).
CNc1ccccc1C(=O)O[C@@H]1[C@@H](C)[C@]2(O)[C@@H]3C=C(C)C(=O)[C@@H]3[C@H](O)C(CO)=C[C@H]2[C@@H]2C(C)(C)[C@]12OC(C)=O showed an MIC of 25 µg/mL (≈ 46.3 µM).
With NNC(=O)c1ccncc1 [ISONIAZID] the MIC was 0.04 µg/mL (≈ 0.292 µM).
Compound CNc1ccccc1C(=O)O[C@@H]1[C@@H](C)[C@]2(O)[C@@H]3C=C(C)C(=O)[C@H]3[C@H](O)C(CO)=C[C@H]2[C@@H]2C(C)(C)[C@]12OC(C)=O [SAPINTOXIN B] has an MIC of 12.5 µg/mL (≈ 23.2 µM).
In the case of CNc1ccccc1C(=O)O[C@@H]1[C@@H](C)[C@]2(O)[C@@H]3C=C(C)C(=O)[C@@H]3CC(C)=C[C@H]2[C@@H]2C(C)(C)[C@]12OC(C)=O, the MIC is reported as 200 µg/mL (≈ 394 µM).
CNc1ccccc1C(=O)O[C@@H]1[C@@H](C)[C@]2(O)[C@@H]3C=C(C)C(=O)[C@@H]3[C@H](O)C(C)=C[C@H]2[C@@H]2C(C)(C)[C@]12OC(C)=O gave an MIC greater than 200 µg/mL.
NC[C@H]1O[C@H](O[C@H]2[C@H](O)[C@@H](O[C@H]3O[C@H](CO)[C@@H](O)[C@H](N)[C@H]3O)[C@H](N)C[C@@H]2N)[C@H](O)[C@@H](O)[C@@H]1O.O=S(=O)(O)O [KANAMYCIN SULFATE] showed an MIC of 2 µg/mL.
For CNc1ccccc1C(=O)O[C@@H]1[C@@H](C)[C@]2(O)[C@@H]3C=C(C)C(=O)[C@H]3CC(CO)=C[C@H]2[C@@H]2C(C)(C)[C@]12OC(C)=O [SAPINTOXIN A], the MIC was 3.12 µg/mL (≈ 5.96 µM).
